Test results taken from patent publication US20240294545A1 (CSPC Zhongqi Pharmaceutical Technology (Shijiazhuang) Co., …, priority 2020, published 2024).
pIC50: −log10 of the molar value. Where two headings read alike, the source gives them in different places. Marks after values point to notes of the source that are not given here.

How the values were obtained:
[1] = tested on: Human glioblastoma cell line LN-18; test: LN18 cell proliferation combined with radiotherapy (CTG assay); type: cell-based; conditions: for pIC50: LN18 cells, 1 Gy irradiation 1 h after compound, 6 days, CTG; for inhibitory effect on LN18 cell proliferation, in words: combined with radiotherapy, compared with AZD1390 as positive control;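 as to pIC50: readout is CTG luminescence proliferation not KAP1 phosphorylation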
Experimental: 5 Test of the Inhibitory Activities of the Compounds of the Present Disclosure Combined with Radiotherapy on LN18 Cell Proliferation
• Cell: Human glioblastoma cell line LN-18
5.2 Experimental Procedures
• (1) Cell inoculation • 1) The cell culture fluid was preheated at 37° C. • 2) A complete culture medium of LN18 cells was prepared, at a ratio of DMEM medium:FBS=95:5 (V/V). • 3) Cells were digested with trypsin, collected to serve as a cell suspension, and counted, the cell suspension was then added into a 96-well plate at 1500 cells/well and 100 μL of cell fluid/well, and three parallel wells were set. • 4) After inoculated in the plate, the cells were cultured overnight under the condition of 37° C. and 5% CO2. • (2) Compound addition and incubation • 1) AZD1390 and tested compounds, respectively, were sequentially diluted 5 times with DMSO, starting from the concentration of 10 mM and yielding the concentrations of 10, 2, 0.4, 0.08, 0.016, 0.0032, 0.00064, 0.000128, and 0.0000256 mM in turn. The compound solutions at the above concentrations were diluted 5000 times with the complete culture medium. The final 2× concentrations were in order 2000, 400, 80, 16, 3.2, 0.64, 0.128, 0.0256, and 0.00512 nM. The vehicle control was 0.02% DMSO culture fluid. • 2) A complete culture medium containing 100 μL of the compound solution was added to each well, and the final concentrations of the compounds in the wells were in order 1000, 200, 40, 8, 1.6, 0.32, 0.064, 0.0128, and 0.00256 nM. The 0.01% DMSO culture fluid was contained in the vehicle control well. After incubated with compound for 1 h, the cells were irradiated at a dose of 1 Gy. • 3) After irradiation, the plate was put into an incubator and incubated under the condition of 37° C. and 5% CO2 for 6 days. Then detection was performed by adopting CTG assay (100 μL of liquid from each well was sucked out and discarded, and 50 μL of CTG reagent was added to each well, and incubated at room temperature for 30 min, and the luminescence intensity was detected). • (3) Data analysis • 1) The Luminescence signal (RLU) of each well was detected. • 2) Proliferation inhibitory activity was calculated according to the formula: % inhibitory activity=RLUtreatment/RLUAvg(Vehicle)*100. 5.3 the Inhibitory Activities of Compounds of the Present Disclosure Combined with Radiotherapy on LN18 Cell Proliferation

ATM = ATM (Homo sapiens (Human), UniProt Q13315); test: Caliper mobility shift assay for ATM; type: biochemical; conditions: read-out: IC50 of inhibitory activity on ATM kinase
Experimental: 1.2 Determination of the Inhibitory Activities of Compounds on ATM: Caliper Mobility Shift Assay for ATM
To a 96-well plate, 98 μL of DMSO and 2 μL of the 10 mM stock solution were added and mixed evenly so that the concentration of the solution was 200 μM.
Based on the inhibitory rates of the compound at different concentrations, IC50 was calculated according to the formula: Y=Bottom+(Top−Bottom)/(1+(IC50/X)^HillSlope).

[2] = tested on: subcutaneous xenograft tumor of human glioblastoma LN-18; test: LN-18 subcutaneous xenograft, combined with radiotherapy; type: in vivo, NOG mice; conditions: compound 5 mg/kg intragastric qd × 5 + IR 1 Gy, day 17
Experimental: 9 Efficacy Test of the Compounds of the Present Disclosure Combined with Radiotherapy on Inhibiting the Growth of Subcutaneous Xenograft Tumor of Human Glioblastoma LN-18
9.1 Experimental Animals: NOG Mice, SPF, Female, 18 to 22 g.
LN-18 tumor cells, DMEM medium:fetal bovine serum=95%:5%, accompanied by adding 100 U/mL penicillin and 100 μg/mL streptomycin, 37° C., 5% CO2.
LN18 tumor cells resuspended in serum-free DMEM medium were inoculated subcutaneously in the right costal region of experimental animals at 1.5*10^7/0.15 mL, and the animals were grouped when the tumor grew to 100 to 150 mm^3. Radiotherapy was performed 1 h after administration of compounds.
Tumor volume: The tumor volume was measured twice a week with a vernier caliper, and the long diameter and short diameter of tumor were measured. The tumor volume was calculated as follows: tumor volume (TV)=0.5×long diameter×short diameter^2. Tumor growth inhibitory rate (TGI %) was calculated according to the tumor volume. TVXn represents the mean tumor volume on day n of the treatment group, TVX0 represents the mean tumor volume on day 0 of the treatment group, TVMn represents the mean tumor volume on day n of the control group, and TVM0 represents the mean tumor volume on day 0 of the control group.

ATM-phosphorylated KAP1 = test: Intracellular ATM-phosphorylated KAP1 level, ICW assay in MCF7 cells; type: cell-based, Human; conditions: for pIC50: MCF7 cells, 2 h compound, 10 Gy irradiation, further 1 h, read-out: pKAP1 IC50; for inhibitory effect on ATM KAP phosphorylation, in words: cellular level, compared with AZD1390 as positive control
Experimental: 4 Inhibition on Intracellular ATM-Phosphorylated KAP1 Level by the Compounds of the Present Disclosure: ICW Assay
• Cell: Human breast cancer cell line MCF7 • Materials and reagents:
4.2 Experimental Procedures
• (1) Cell inoculation • MCF7 cells were inoculated on a 384-well plate, 10000 cells/well (25 μL/well), and cultured overnight at 37° C. with 5% CO2. • (2) Activity detection • 1) The compound was formulated into a 100 mM solution with DMSO and then sequentially diluted with a gradient of 1:3 to yield a total of 10 concentration gradients, wherein the maximum concentration was 100 μM. • 2) 25 nL of each of the compound solutions with gradient concentrations prepared in step 1) was added to each well of the cell plate (Corning #356663) by using I-DOT One, resulting in a final concentration of 100 nM (maximum dose). • 3) The cell plate containing compound was incubated at 37° C. with 5% CO2 for 2 h. After 2 h, the cell plate was irradiated with a dose of 10 Gy, and then further incubated for 1 h. • 4) 25 μL of 8% paraformaldehyde was added to each well, followed by incubating at room temperature for 20 min. • 5) The 8% paraformaldehyde was discarded, followed by adding 0.1% TrintonX-100 and incubating at room temperature for 30 min. • 6) Odessey blocking buffer was added at 50 μL/well, followed by incubating at room temperature for 1.5 h. • 7) The Odessey blocking buffer was discarded, and then a primary antibody (Phospho-KAP1, 1:2000 dilution) was added, followed by incubating overnight at 4° C. • 8) The primary antibody was removed, followed by washing with PBS+0.1% Tween 20 for 5 times. • 9) DNA dye DRAQ5 coated with a second antibody (IRDye 800CW Goat anti-Rabbit, 1:4000 dilution) was added, followed by incubating at room temperature for 1 h. • 10) The second antibody was removed, followed by washing with PBS+0.1% Tween 20 for 5 times. • 11) PBS+0.1% Tween 20 was sucked off with Odyssey. • (3) Data analysis • 1) the relative ratio of Channel 800/Channel 700 for each well was detected. • 2) % of KAP1 phosphorylation was calculated according to the following formula:
% of KAP1 phosphorylation=[(Ratiocmpd−(Ratio)Positive)/((Ratio)Vehicle−(Ratio)Positive]*100 • (Ratio)Positive: the mean value of the test values of each positive control well in the test cell plate; • (Ratio)Vehicle: the mean value of the test values of each negative control well in the test cell plate. • 3) the IC50 of each compound was calculated and the dose-effect curve was plotted: % of KAP1 phosphorylation and log of compound's concentration were fit by using Graphpad 8.0 so as to calculate the IC50.
[formula] • X: log of compound's concentration • Y: % of KAP1 phosphorylation

[3] = Homo sapiens, LN-18, light or radiation study
[4] = Homo sapiens, light or radiation study

Chain of ATM (Q13315 whole entry): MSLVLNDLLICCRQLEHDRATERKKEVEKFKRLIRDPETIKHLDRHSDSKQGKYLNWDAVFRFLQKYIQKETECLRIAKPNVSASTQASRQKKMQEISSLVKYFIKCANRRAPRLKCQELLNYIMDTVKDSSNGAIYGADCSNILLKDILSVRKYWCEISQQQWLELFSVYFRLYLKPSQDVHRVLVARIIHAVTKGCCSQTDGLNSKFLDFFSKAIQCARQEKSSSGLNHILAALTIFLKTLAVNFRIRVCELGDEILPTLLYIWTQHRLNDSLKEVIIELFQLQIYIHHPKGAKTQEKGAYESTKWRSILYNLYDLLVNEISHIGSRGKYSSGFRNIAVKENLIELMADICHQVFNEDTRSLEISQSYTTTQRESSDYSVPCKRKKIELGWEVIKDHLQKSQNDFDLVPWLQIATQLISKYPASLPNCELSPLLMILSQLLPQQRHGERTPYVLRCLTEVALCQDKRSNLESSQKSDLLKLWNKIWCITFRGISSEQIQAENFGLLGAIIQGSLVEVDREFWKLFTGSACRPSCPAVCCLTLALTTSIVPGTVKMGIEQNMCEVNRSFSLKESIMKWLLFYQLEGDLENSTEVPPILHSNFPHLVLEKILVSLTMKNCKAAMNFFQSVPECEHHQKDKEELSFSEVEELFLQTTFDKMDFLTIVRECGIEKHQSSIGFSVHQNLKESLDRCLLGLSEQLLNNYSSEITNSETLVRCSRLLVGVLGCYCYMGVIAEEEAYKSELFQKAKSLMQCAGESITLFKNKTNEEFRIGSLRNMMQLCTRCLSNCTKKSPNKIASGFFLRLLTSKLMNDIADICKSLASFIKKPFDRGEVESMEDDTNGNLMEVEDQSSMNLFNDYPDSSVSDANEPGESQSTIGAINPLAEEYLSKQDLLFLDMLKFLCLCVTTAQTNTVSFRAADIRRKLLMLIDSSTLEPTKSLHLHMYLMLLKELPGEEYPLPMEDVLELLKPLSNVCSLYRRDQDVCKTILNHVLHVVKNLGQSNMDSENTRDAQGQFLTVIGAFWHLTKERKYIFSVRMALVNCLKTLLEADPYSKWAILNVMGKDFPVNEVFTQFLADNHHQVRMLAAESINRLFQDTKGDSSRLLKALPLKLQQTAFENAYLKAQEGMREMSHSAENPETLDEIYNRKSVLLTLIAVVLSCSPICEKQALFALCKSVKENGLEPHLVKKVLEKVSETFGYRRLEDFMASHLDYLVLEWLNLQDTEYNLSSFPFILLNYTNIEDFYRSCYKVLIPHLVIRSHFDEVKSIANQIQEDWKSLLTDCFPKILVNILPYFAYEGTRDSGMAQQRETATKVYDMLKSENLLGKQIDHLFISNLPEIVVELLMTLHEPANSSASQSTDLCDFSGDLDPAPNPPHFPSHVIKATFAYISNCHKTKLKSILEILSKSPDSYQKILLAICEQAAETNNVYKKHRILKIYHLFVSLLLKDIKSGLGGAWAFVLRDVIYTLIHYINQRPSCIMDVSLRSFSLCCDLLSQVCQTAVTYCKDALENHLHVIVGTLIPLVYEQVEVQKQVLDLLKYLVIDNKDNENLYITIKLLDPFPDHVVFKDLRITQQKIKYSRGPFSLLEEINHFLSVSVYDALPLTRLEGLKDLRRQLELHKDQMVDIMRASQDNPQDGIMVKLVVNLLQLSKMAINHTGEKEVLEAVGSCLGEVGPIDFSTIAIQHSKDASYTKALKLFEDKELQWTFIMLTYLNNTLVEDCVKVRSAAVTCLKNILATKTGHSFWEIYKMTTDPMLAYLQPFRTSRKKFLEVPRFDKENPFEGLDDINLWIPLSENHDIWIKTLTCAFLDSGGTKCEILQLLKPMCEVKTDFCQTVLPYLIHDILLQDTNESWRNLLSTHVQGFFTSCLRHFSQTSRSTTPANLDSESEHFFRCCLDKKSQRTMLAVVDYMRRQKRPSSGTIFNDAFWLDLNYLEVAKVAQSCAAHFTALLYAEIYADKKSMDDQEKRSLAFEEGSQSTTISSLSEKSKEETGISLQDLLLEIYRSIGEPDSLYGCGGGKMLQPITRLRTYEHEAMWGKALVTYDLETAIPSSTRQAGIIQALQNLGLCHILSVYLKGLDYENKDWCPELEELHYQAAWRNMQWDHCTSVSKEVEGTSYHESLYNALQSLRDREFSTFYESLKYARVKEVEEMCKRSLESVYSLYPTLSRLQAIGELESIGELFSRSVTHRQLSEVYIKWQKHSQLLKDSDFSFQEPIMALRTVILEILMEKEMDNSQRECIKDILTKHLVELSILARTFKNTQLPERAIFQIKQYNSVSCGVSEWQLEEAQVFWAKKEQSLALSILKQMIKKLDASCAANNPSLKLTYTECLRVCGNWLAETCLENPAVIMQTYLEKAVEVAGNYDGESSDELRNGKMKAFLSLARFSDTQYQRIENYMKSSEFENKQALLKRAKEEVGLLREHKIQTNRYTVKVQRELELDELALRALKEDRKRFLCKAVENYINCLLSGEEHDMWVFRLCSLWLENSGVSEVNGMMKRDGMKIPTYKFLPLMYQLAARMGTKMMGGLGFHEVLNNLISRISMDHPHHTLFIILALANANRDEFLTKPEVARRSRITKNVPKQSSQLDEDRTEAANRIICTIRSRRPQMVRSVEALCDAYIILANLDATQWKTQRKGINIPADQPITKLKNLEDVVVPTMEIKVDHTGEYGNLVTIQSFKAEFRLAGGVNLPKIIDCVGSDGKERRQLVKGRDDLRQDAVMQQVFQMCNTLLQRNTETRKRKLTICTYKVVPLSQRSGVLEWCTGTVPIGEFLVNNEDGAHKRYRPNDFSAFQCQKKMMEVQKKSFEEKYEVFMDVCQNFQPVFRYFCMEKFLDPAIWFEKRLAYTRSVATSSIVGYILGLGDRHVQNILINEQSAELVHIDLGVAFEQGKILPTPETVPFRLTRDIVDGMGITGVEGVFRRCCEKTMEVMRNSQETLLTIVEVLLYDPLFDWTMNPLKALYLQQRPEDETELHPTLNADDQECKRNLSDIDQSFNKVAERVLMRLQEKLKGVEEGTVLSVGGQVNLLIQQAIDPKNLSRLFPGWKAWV

## Cn1c(=O)n2c3c4c(c(-c5ccc(OCCCN6CCCCC6)nc5)ccc4ncc31)OCC21CC1 [Example A-68, 2-methyl-7-(6-(3-(piperidin-1-yl)propoxy)pyridin-3-yl)-2,9-dihydro-1H-spiro[8-oxa-2,4,10a-triazanaphtho[2,1,8-cde]azulene-10,1′-cyclopropan]-1-one]
[1]; [3]
  pIC50: 8.17
ATM
  pIC50: 9.43
[2]
  D 17 TGI: 83.9%
  D 17 TV (MEAN ± SD): 285 ± 61***^# mm^3
ATM-phosphorylated KAP1; [4]
  pIC50: 9.05

## C[C@H]1COc2c(-c3ccc(OCCCN4CCCCC4)nc3)ccc3ncc4c(c23)n1c(=O)n4C [Example A-177, (S)-2,10-dimethyl-7-(6-(3-(piperidin-1-yl)propoxy)pyridin-3-yl)-9,10-dihydro-8-oxa-2,4,10a-triazanaphtho[2,1,8-cde]azulen-1(2H)-one]
[1]; [3]
  pIC50: 8.28
ATM
  pIC50: 9.60
[2]
  D 17 TGI: 77.9%
  D 17 TV (MEAN ± SD): 338 ± 67***^ mm^3
ATM-phosphorylated KAP1; [4]
  pIC50: 9.21

## C[C@H]1COc2c(-c3ccc(OCCCN4CCC5(CC4)CC5)nc3)ccc3ncc4c(c23)n1c(=O)n4C [Example A-183, (S)-7-(6-(3-(6-azaspiro[2.5]octan-6-yl)propoxy)pyridin-3-yl)-2,10-dimethyl-9,10-dihydro-8-oxa-2,4,10a-triazanaphtho[2,1,8-cde]azulen-1(2H)-one]
[1]; [3]
  pIC50: 8.86
[1]
  inhibitory effect on LN18 cell proliferation, in words: higher than that of AZD1390
ATM
  pIC50: 9.64
[2]
  D 17 TGI: 85.7%
  D 17 TV (MEAN ± SD): 269 ± 89***^# mm^3
ATM-phosphorylated KAP1; [4]
  pIC50: 9.66
ATM-phosphorylated KAP1
  inhibitory effect on ATM KAP phosphorylation, in words: higher than that of AZD1390

## C[C@H]1COc2c(-c3ccc(OCCCN4CCC5(CC4)COC5)nc3)ccc3ncc4c(c23)n1c(=O)n4C [Example A-184, (S)-7-(6-(3-(2-oxa-7-azaspiro[3.5]nonan-7-yl)propoxy)pyridin-3-yl)-2,10-dimethyl-9,10-dihydro-8-oxa-2,4,10a-triazanaphtho[2,1,8-cde]azulen-1(2H)-one]
[1]; [3]
  pIC50: 8.42
ATM
  pIC50: 9.60
ATM-phosphorylated KAP1; [4]
  pIC50: 9.48
ATM-phosphorylated KAP1
  inhibitory effect on ATM KAP phosphorylation, in words: higher than that of AZD1390

## C[C@H]1CNc2c(-c3ccc(OCCCN4CCCCC4)nc3)ccc3ncc4c(c23)n1c(=O)n4C [Example A-198, (S)-2,10-dimethyl-7-(6-(3-(piperidin-1-yl)propoxy)pyridin-3-yl)-2,8,9,10-tetrahydro-1H-2,4,8,10a-tetraazanaphtho[2,1,8-cde]azulen-1(2H)-one]
[1]
  pIC50: 8.23
ATM
  pIC50: 9.36
[2]
  D 17 TGI: 79.3%
  D 17 TV (MEAN ± SD): 326 ± 77***^# mm^3
ATM-phosphorylated KAP1
  pIC50: 9.19

## CC[C@H]1CNc2c(-c3ccc(OCCCN4CCCCC4)nc3)ccc3ncc4c(c23)n1c(=O)n4C [Example A-203, (S)-10-ethyl-2-methyl-7-(6-(3-(piperidin-1-yl)propoxy)pyridin-3-yl)-2,8,9,10-tetrahydro-1H-2,4,8,10a-tetraazanaphtho[2,1,8-cde]azulen-1(2H)-one]
[1]
  pIC50: 8.25
ATM
  pIC50: 9.27
[2]
  D 17 TGI: 71.4%
  D 17 TV (MEAN ± SD): 396 ± 121*** mm^3
ATM-phosphorylated KAP1
  pIC50: 9.08

## CC1CCN(CCCOc2ccc(-c3ccc4ncc5c6c4c3NC[C@H](C)n6c(=O)n5C)cn2)CC1 [Example A-211, (S)-2,10-dimethyl-7-(6-(3-(4-methylpiperidin-1-yl)propoxy)pyridin-3-yl)-2,8,9,10-tetrahydro-1H-2,4,8,10a-tetraazanaphtho[2,1,8-cde]azulen-1(2H)-one]
[1]
  pIC50: 8.57
  inhibitory effect on LN18 cell proliferation, in words: higher than that of AZD1390
ATM
  pIC50: 9.48
ATM-phosphorylated KAP1
  pIC50: 9.48
  inhibitory effect on ATM KAP phosphorylation, in words: higher than that of AZD1390

## C[C@H]1CNc2c(-c3ccc(OCCCN4CCC(C)(C)CC4)nc3)ccc3ncc4c(c23)n1c(=O)n4C [Example A-212, (S)-7-(6-(3-(4,4-dimethylpiperidin-1-yl)propoxy)pyridin-3-yl)-2,10-dimethyl-2,8,9,10-tetrahydro-1H-2,4,8,10a-tetraazanaphtho[2,1,8-cde]azulen-1(2H)-one]
[1]
  pIC50: 8.83
  inhibitory effect on LN18 cell proliferation, in words: higher than that of AZD1390
ATM
  pIC50: 9.43
ATM-phosphorylated KAP1
  pIC50: 9.43
  inhibitory effect on ATM KAP phosphorylation, in words: higher than that of AZD1390
